Columns and labels:
[1] = Release of active in wind tunnel (residual analysis); assay type: physicochemical; conditions: for % Evap Barex: 5 mg transfluthrin coated on Barex (103 sq. cm.) from the named solvent; for % Evap Filter Paper: 5 mg transfluthrin coated on filter paper (103 sq. cm.) from the named solvent
Description: A computer controlled wind tunnel was custom designed using a fan 18 for drawing fresh air designated by arrows 20 past baffles 22 into a chamber 28 containing multiple strips 10 to determine the release of actives from these strips under controlled environmental conditions (see FIG. 2).
Preset wind velocities can be entered into the computer and maintained without operator's involvement during the testing period. Honey comb flow straighteners 24 and 26 were placed on either ends of the wind tunnel to obtain uniform velocity profiles. Strips 10 were placed on the floor of a 12 inch by 12 inch cross sectioned body in triplicates in a staggered fashion so as to equalize any possible errors that arise from spatial dependency of air velocity. All studies were carried out at a constant air flow rate of 2 meters per second as determined by a velocity probe 30 in chamber 28 and at an ambient temperature of 70° F. for 72 hours. The exhaust designated by arrows 32 of the wind tunnel was directly connected to the building ventilation duct to prevent Transfluthrin contamination of the lab. Strips 10 were removed at predetermined intervals and stored in the refrigerator for subsequent analytical or biological testing.
(§1) A validated analytical method was used to determine the residual level of active on the strips using gas chromatography. All samples were analyzed using this method to determine evaporation losses and release rates in the wind tunnel.

[2] = system: Aedes Aegypti female mosquitoes; assay: Knockdown efficacy against mosquitoes in glass chamber; assay type: in vivo; conditions: for KD50 / KD80 / Dead (%): Barex strips coated with 5 mg of each active; for KD50 / KD80: 20 min test period; for Dead (%): 24 hours post treatment; for knockdown / biological activity in glass chamber (in words): fresh samples, 5 mg, 20 minute test period; for pest or weed control at 5 mg/strip: Aedes aegypti, 24 h, read-out: Dead (%)
Protocol: Markings were made to identify the side to be treated with the active. Markings were also made to leave one inch spacing on either ends 12 and 14 of the strip 10 to enable handling. Intermediate solutions of the active in organic solvents were prepared. A micropipettor, calibrated to transfer a known amount of intermediate solution on to the strip, was used to dose the strip with the active. The solution, after transferring onto the strip 10, was made to wet a 2 inch by 8 inch area 16 between ends 12 and 14, and allowed to sit on the bench top until most of the solvent evaporated and the strips appeared dry (which took 15 minutes to 30 minutes). Strips 10 were then either folded twice and held together with a metal clip and kept in a glass jar or were wrapped in aluminum foil and kept in a sealed plastic bag. These were then stored in the refrigerator at −10° C. until further use.
A Glass chamber (0.75 m×0.75 m×0.75 m) was used for the test and was maintained at 80° F. and 50% relative humidity. Three treated strips were placed on a card board tray covered with an aluminum foil and then transferred to the glass chamber. The strips were exposed in the chamber for three minutes to allow insecticide vapors build-up in the enclosed air. Strips were then quickly removed, folded and stored in the refrigerator. Ten laboratory-cultured adult Aedes Aegypti female mosquitoes were released into the chamber. […] After 20 minutes of exposure, all mosquitoes were collected and placed in a container with sucrose pad. […] KD50, KD80, and % Dead values of the tests were obtained for analysis. KD50 and KD80 are defined as the time taken for 50% and 80% of the mosquitoes to get knocked down and % Dead is simply the percentage of mosquitoes that are dead after 24 hour period. The glass chamber was then dismantled and thoroughly wiped with soap solution to remove contamination of the active. The walls were then wiped with a paper towel and allowed to dry before assembling again for the next run.

Culex quinquefasciatus = assay: Field trials in living rooms, human bare-leg catch; assay type: in vivo; conditions: Malaysia field study
Protocol: Field trials against Culex quinquefasciatus were conducted in living rooms of residential houses in a squatter area at Ujung Batu, Butterworth on the Northwest peninsula of Malaysia on plastic strips coated with transfluthrin. […] A total of four configurations were tested.
Config. A 2 sheets hung together on each of four walls
Config. B 1 sheet hung on each four walls
Config. C 1 sheet hung on each two opposite walls
Config. D 1 sheet hung on a wall
The average volume of the rooms where the test is conducted is 75.5 cubic meters […]. The human baits were seated 1-2 meters away from all the treated sheets and the efficacy was evaluated using the human bare-leg catch technique during the first 0-2 hours, 24 hours, 96 hours, and 168 hours the placing of the test sheets in the rooms.
These tests were conducted under a rigorous test environment. The predominant species collected during the trials was Culex quinquefasciatus which are most tolerant to pyrethroid based household insecticide products among the common mosquitoes found in the living premises in tropical and subtropical regions globally. Due to the local weather changes, the squatter area chosen for the trials indicated lower indoor mosquito density during the pretreatment and treatment trials.

[3] = Residual analysis and release rate of large chamber samples; assay type: physicochemical
Protocol: as §1
The 8 hour aged strips were also sent to analytical for residual analysis. Results, as summarized in Table 18, indicate that the average release of transfluthrin during the 8 hour period is ˜0.2 mg/hr.
Lab studies were also conducted on a portable electric device where a corrugated disc was impregnated with 280 mg of transfluthrin. The disc was placed in a device which has a fan that runs on a battery. Air flows through the holes of the disc releasing the transfluthrin into the environment. Lab studies were conducted on this unit to determine its efficacy. […] Weight loss experiments were also conducted to determine the release rates from this unit.

Structure (SMILES)	% Evap Barex [1]	% Evap Filter Paper [1]	KD50 [2]	KD80 [2]	knockdown / biological activity in glass chamber (in words) [2]	pest or weed control at 5 mg/strip [2]	other results
CCC(C)O (centres unmarked) [2-Butanol]	60.3%	67.1%	–	–	–	–	–
Cc1ccccc1 [Toluene]	60.9%	58.4%	–	–	–	–	–
CCCCCCC [Heptane]	86.8%	78.5%	–	–	–	–	–
C#CCC1=C(C)C(OC(=O)C2C(C=C(C)C)C2(C)C)CC1=O (centres unmarked) [ETOC]	–	–	>20 min	>20 min	either minimal activity or no activity at all	–	Dead (%) [2]: 0%
CCC(C)=O [MEK]	67.5%	62.4%	–	–	–	–	–
CC1(C)[C@H](C=C(Cl)Cl)[C@H]1C(=O)OCc1c(F)c(F)cc(F)c1F [Transfluthrin, (IR-trans)-(2,3,5,6-tetrafluorophenyl)methyl 3-(2,2-dichoroethenyl)-2,2-dimethyl cyclopropane carboxylate]	–	–	–	6.83 min	highest activity	100%	transfluthrin release rate sufficient to achieve practical control (Culex quinquefasciatus): 0.18 mg/h; Transfluthrin loss in 8 hr ([3]; Barex strip on fan at 3.5 m/s): 1.5 mg; Release rate of Transfluthrin ([3]; average during the 8 hour period, Barex strip on fan, listed as transfluthrin): ~0.2 mg/h
CC(C)O [IPA, isopropyl alcohol]	50.3%	49.0%	–	–	–	–	–
CC1(C)[C@H](C(=O)O[C@H](C#N)c2cccc(Oc3ccccc3)c2)[C@@H]1C=C(Br)Br [Deltamethrin]	–	–	>20 min	>20 min	either minimal activity or no activity at all	20%	–
CCOC(C)=O [Ethyl Acetate]	57.6%	61.1%	–	–	–	–	–
COC(C)=O [Methyl Acetate]	57.6%	55.7%	–	–	–	–	–
CC(C)=O [Acetone]	58.3%	57.7%	–	–	–	–	–
C=CCC1=C(C)C(OC(=O)[C@@H]2[C@@H](C=C(C)C)C2(C)C)CC1=O (some centres unmarked) [Bioallethrin]	–	–	>20 min	>20 min	either minimal activity or no activity at all	–	Dead (%) [2]: 0%
CNC(=O)Oc1ccccc1OC(C)C [Propoxur]	–	–	–	–	either minimal activity or no activity at all	–	–
Cc1c(F)c(F)c(COC(=O)[C@@H]2[C@H](/C=C(\Cl)C(F)(F)F)C2(C)C)c(F)c1F (racemic) [Tefluthrin]	–	–	13.00 min	16.67 min	relatively lower activity	100%	KD50 ([2]; listed as tefluthrin): 13 min
CCO [Ethanol]	70.3%	45.0%	–	–	–	–	–
C#CC(OC(=O)C1C(C=C(C)C)C1(C)C)/C(C)=C/CC (centres unmarked) [Vapothrin]	–	–	>20 min	>20 min	either minimal activity or no activity at all	–	Dead (%) [2]: 0%
CC(C)C(C(=O)OC(C#N)c1cccc(Oc2ccccc2)c1)c1ccc(Cl)cc1 (centres unmarked) [Fenvalerate]	–	–	>20 min	>20 min	either minimal activity or no activity at all	0%	–
CCOP(=S)(OCC)Oc1nc(Cl)c(Cl)cc1Cl [Dursban]	–	–	>20 min	>20 min	either minimal activity or no activity at all	0%	–
CC(=O)OCC(C)C [Isobutyl Acetate]	70.9%	63.8%	–	–	–	–	–
CC(C)=CC1C(C(=O)OCc2cccc(Oc3ccccc3)c2)C1(C)C (centres unmarked) [Sumithrin]	–	–	>20 min	>20 min	either minimal activity or no activity at all	0%	–
C1CCOC1 [THF]	59.6%	56.4%	–	–	–	–	–
CCN(CC)C(=O)c1cccc(C)c1 [DEET]	–	–	>20 min	>20 min	either minimal activity or no activity at all	–	Dead (%) [2]: 0%
CC1(C)C(C=C(Cl)Cl)C1C(=O)OCc1cccc(Oc2ccccc2)c1 (centres unmarked) [Permanone]	–	–	>20 min	>20 min	either minimal activity or no activity at all	–	Dead (%) [2]: 0%
CC(C)=CC1C(C(=O)OCc2coc(Cc3ccccc3)c2)C1(C)C (centres unmarked) [Resmethrin]	–	–	>20 min	>20 min	either minimal activity or no activity at all	10%	–
CO [Methanol]	58.3%	47.0%	–	–	–	–	–
CC1(C)C(C=C(Cl)Cl)C1C(=O)OC(C#N)c1cccc(Oc2ccccc2)c1 (centres unmarked) [Cypermethrin]	–	–	>20 min	>20 min	either minimal activity or no activity at all	0%	–

Source: US6534079B1, “Passive space insect repellant strip” (priority 1999, dated 2003)
